Experimental data taken from US8026251B2, “Huperzine A and its derivatives as analgesic agents” (priority 2005, dated 2011).

What was measured:
migraine = experiment: Treatment of migraine with oral huperzine A (clinical cases); format: in vivo, human; settings: for Time from administration until headache completely disappeared: two tablets (50 μg/tablet) oral on occurrence of migraine
Description: Test 2: Treatment of Migraine with Oral Huperzine A
Drug: Huperzine A Tablet (50 μg/tablet, manufactured by Henan Zhulin Zhongsheng Pharmaceutical Factory.)
Previously treated with bufferin plus, but recently reported that analgesic effects of bufferin plus have weakened.
Methods: On occurrence of migraine pains (8 times within a month), two tablets of huperzine A were administered. Within 20 minutes from administration, the headache has completely disappeared.
Patient: with a medical history of migraine of 2 years. Previously treated with ergotamine, but recently reported that analgesic effects of ergotamine have weakened.
Methods: On occurrence of migraine pains (10 times within a month), two tablets of huperzine A were administered. Within 30 minutes from administration, the headache has completely disappeared.
Patient: with a medical history of migraine of 3 years, occurring at a frequency of about 8-12 times per month.
Methods: One tablet of huperzine A was administered per day orally.

mice = experiment: Hot plate test (pain threshold, mice); format: in vivo, Kunming mice; settings: x ± s, n = 10; for Pain thresholds before administration: hot plate 55°C, baseline before administration; for Pain thresholds after administration at 30 min / Pain thresholds after administration at 60 min / Pain thresholds after administration at 120 min / Pain thresholds after administration at 180 min / Pain thresholds after administration at 240 min: hot plate
Description: Kunming mice, grade 2, female, weight of 20±2 g, purchased from the Division of Laboratory Animals, Department of Medical Sciences of Peking University, animal license No.: SCX Jing 2002-0001.
1.2.1 Solutions of huperzine A and huperzine A derivatives in normal saline water were prepared for stomach perfusion of mice.
1.2.2 Solutions of bucinnazine hydrochloride tablets, 30 mg/tablet, manufactured by Tianjin Lisheng Pharmaceutical Factory, approval No.: 0201001, in normal saline solution were prepared at a concentration of 1.5 mg/ml for stomach perfusion of mice.
A water bath was heated to a constant temperature of 55±0.5° C. The bottom of a metal plate was placed in contact with water surface. A mouse was placed on the hot plate and a timer was activated. The timer was deactivated when the mouse began licking its rear feet. The measured time was taken as the pain threshold. The pain threshold was measured two times for each mouse, and those mice whose average pain threshold was less than 30 s were qualified for the experiment.
Qualified mice were randomly divided into groups of 10. At first the pain threshold before administration of a drug was measured. Then drugs were administered as identified in Table 1. The administration volume was 0.2 ml per each 10 g of weight. Normal saline solution was administered to the control group. After administration, the pain threshold was measured at different time periods post-administration. A statistical t-test was calculated of the group interval, based on the test data.

SMILES: C/C=C1\[C@H]2C=C(C)C[C@]1(N)c1ccc(=O)[nH]c1C2 [Huperzine A, (5R,9R,11E)-5-amino-11-ethylidene-5,6,9,10-tetrahydro-7-methyl-5,9-methanocycloocta[b]pyridin-2(1H)-one]
- Time from administration until headache completely disappeared (migraine; Case 1, migraine patient): ≤ 20 min
- Analgesic effects over a period of one month (migraine; Case 1, two tablets (50 μg/tablet) oral per attack): Good analgesic effects
- Side effects (migraine; Case 1, two tablets (50 μg/tablet) oral per attack, 8 times within a month): Minor side effects
- Time from administration until headache completely disappeared (migraine; Case 2, migraine patient): ≤ 30 min
- Analgesic effects over a period of one month (migraine; Case 2, two tablets (50 μg/tablet) oral per attack): Good analgesic effects
- Side effects (migraine; Case 2, two tablets (50 μg/tablet) oral per attack, 10 times within a month): No side effects
- Migraine attacks over the period of 1 month (prevention) (migraine; Case 3, migraine about 8-12 times per month, one tablet (50 μg) per day orally): did not complain of migraine attacks
- Effect of long-term administration on migraine attacks (migraine; long-term administration, summary statement): prevents migraine attacks
- Effect on migraine in clinical studies (migraine; oral administration, summary statement): alleviates and/or cures migraine
- Pain thresholds before administration (mice; group later dosed 0.2 mg/kg by stomach perfusion): 14.2 ± 4.49 s
- Pain thresholds before administration (mice; group later dosed 0.4 mg/kg by stomach perfusion): 15.3 ± 2.86 s
- Pain thresholds after administration at 30 min (mice; 0.2 mg/kg stomach perfusion): 13.3 ± 4.05 s
- Pain thresholds after administration at 60 min (mice; 0.2 mg/kg stomach perfusion): 14.5 ± 5.08 s
- Pain thresholds after administration at 120 min (mice; 0.2 mg/kg stomach perfusion): 14.2 ± 5.20 s
- Pain thresholds after administration at 180 min (mice; 0.2 mg/kg stomach perfusion): 13.3 ± 3.68 s
- Pain thresholds after administration at 240 min (mice; 0.2 mg/kg stomach perfusion): 14.6 ± 2.84 s
- Pain thresholds after administration at 30 min (mice; 0.4 mg/kg stomach perfusion): 28.4 ± 8.12 s
- Pain thresholds after administration at 60 min (mice; 0.4 mg/kg stomach perfusion): 31.7 ± 10.56 s
- Pain thresholds after administration at 120 min (mice; 0.4 mg/kg stomach perfusion): 27.6 ± 8.22 s
- Pain thresholds after administration at 180 min (mice; 0.4 mg/kg stomach perfusion): 25.5 ± 8.88 s
- Pain thresholds after administration at 240 min (mice; 0.4 mg/kg stomach perfusion): 27.8 ± 5.94 s

SMILES: C/C=C1\[C@H]2C=C(C)C[C@]1(NC(=O)OCC(C)C)c1ccc(=O)[nH]c1C2 [Example 7, (5R,9R,11E)-5-(2-methylpropoxycarbonylamino)-11-ethylidene-5,6,9,10-tetrahydro-7-methyl-5,9-methanocycloocta[b]pyridin-2(1H)-one]
- Pain thresholds before administration (mice; group later dosed 0.6 mg/kg by stomach perfusion): 15.8 ± 3.97 s
- Pain thresholds after administration at 30 min (mice; 0.6 mg/kg stomach perfusion): 28.5 ± 2.55 s
- Pain thresholds after administration at 60 min (mice; 0.6 mg/kg stomach perfusion): 30.1 ± 6.90 s
- Pain thresholds after administration at 120 min (mice; 0.6 mg/kg stomach perfusion): 27.7 ± 4.49 s
- Pain thresholds after administration at 180 min (mice; 0.6 mg/kg stomach perfusion): 23.1 ± 2.41 s
